Converted amounts (≈) assume the structure as drawn.

The test system of assay [1] is Extensively drug resistant Mtb strains. In words: microbe, parasite or virus in culture. The following applies: for MIC: Mycobacterium tuberculosis. The class given is cell-based.
Assay [2] relates to PAS resistant Mtb: FolC mutants. The class given is cell-based, Mycobacterium tuberculosis.
In assay [3] the test system is Multidrug resistant Mtb strains. Description: microbe, parasite or virus in culture. The class given is cell-based. The following applies: Mycobacterium tuberculosis.

Take `Nc1cc(O)c(C(=O)O)cc1F` [Compound 11, 4-Amino-5-fluoro-2-hydroxybenzoic acid]: the “activity against XDR and PAS resistant strains” value in assay [1] (most XDR and PAS resistant strains) was “largely inactive”. The MIC in assay [2] is not below 50 µM; in assay [3], 6.3 to 50 µM (≈ 1.08 to 8.56 µg/mL).
Turning to `NNC(=O)c1ccncc1` [Isoniazid], the figures for the MIC in assay [1], in assay [2] and in assay [3] were 6.3 to 50 µM (≈ 0.864 to 6.86 µg/mL), 0.3 to 0.4 µM and 0.4 to 19 µM (≈ 0.0549 to 2.61 µg/mL), respectively.
For the compound `CC(=O)NC[C@H]1CN(c2ccc(N3CCOCC3)c(F)c2)C(=O)O1` [Linezolid], the MIC lay in the range of 0.9 to 50 µM (≈ 0.304 to 16.9 µg/mL) in assay [1] and 0.8 to 1.4 µM (≈ 0.27 to 0.472 µg/mL) in assay [3].
Take `Nc1ccc(C(=O)O)c(O)c1` [PAS, para-Aminosalicylic acid]: the MIC in assay [2] was 12.5 to 50 µM; in assay [3], 0.2 to 3.1 µM (≈ 0.0306 to 0.475 µg/mL).

The record behind these values is publication PMC8941652 (European journal of medicinal chemistry, 2022).
